One series in a line: acute oral toxicity test. Particulars: in vivo. The text has this: The results of an acute oral toxicity test of the active ingredient used in the present invention is that its LD50 is about 6 g/kg in the case of N-lauroyl-L-valine. This is an extremely low toxicity.
For a further series, the system named is citrus melanose. The series can be described thus: inhibitory test against Citrus melanose. It is filed as in vivo. Particulars: for pest or weed control at 500 ppm: Table 4, about 2-3 weeks after inoculation, read-out: Preventive value; for Extent infection: Table 4, 500 ppm, about 2-3 weeks after inoculation, untreated 53. The text has this:
Experimental example 3 : inhibitory test against Citrus melanose a. Test plant: shoots of about 3 years grown seedlings of citrus "Onshu" (2 - 4 trees planted in about 20 cm claypot) b. Solution used for test
As control fungicide, "Daisen" [trade (trade name, product of Nihon-NohyakuCo., Ltd., wettable powder containing zinc ethylene bis (dithiocarbamate)]was sprayed at 1000 ppm. c. Inoculum and the method of inoculation
In order to prepare suspension of pycnospores, distilled and sterilized water was poured on the culture twigs with citrus melanose in a test tube. The suspension containing about 200 of pycnospores was prepared under the observation of microscope of 150 magnification and then sprayed inoculation on the test plants treated as above. After inoculation, the test plants were placed in the inoculation box at 27°C and relative humidity of above 95% for about 3 days. Then, they were transferred into the greenhouse. […]
d. The method of inspection
About 2 - 3 weeks after inoculation, the entire leaves of shoots was inspected for the development of disease and the state of infection was evaluated on a scale of 0 to 3 as follows:
1 : 1 -- 50 of disease spots
2 : 51 -- 150 of disease spots
3 : above 151 of disease spots
The extent of infection and the preventive value were calculated according to the following equations (I) and (II), respectively. [formula] wherein n1, n2 and n3 are number of leaves inspected to be the states of infection 1, 2 and 3, respectively and N is the total number of leaves. [formula]

In series [1] the test system is Piricularia oryzae (rice blast). In words: whole plant or invertebrate. Particulars: Pyricularia oryzae, 48 h, read-out: Preventive value.
Series [2] has the same test system. Particulars: Table 1; 500 ppm, 50 ml per pot; two days after infection; untreated 33.0.
The test system of series [3] is cucumber downy mildew (Pseudoperonospore cubensis). In words: inhibitory test against cucumber downy mildew. Particulars: for pest or weed control at 500 ppm: Cucumis sativus; for Number of leaves infected (outside) / Number of leaves infected (inside): 23rd of May; for Number of leaves infected (outside): untreated 12; for Number of leaves infected (inside): untreated 22. The format is in vivo. As to the method: Experimental example 4 : inhibitory test against cucumber downy mildew
Cucumber seeds (variety "Shinhikari No. A") were planted in seed-beds at the biginning of October, three cucumber seeds being planted per seed-bed, and they were grown in a greenhouse made of vinyl resin. This experiment was performed as three-repeated cultivation.
The test plants treated thus were left to spontaneous infection.

This note sets out measurements from US3947589A (priority 1971, dated 1976).

Like-named read-outs stand apart in the source and are kept apart here.

What is called LD50 is the dose expected to kill half of the subjects tested.

In the case of `CCCCCCCCCCCC(=O)N[C@H](C(=O)O)C(C)C` [No. 2, N-lauroyl-L-valine], the LD50 in the series “acute oral toxicity test” is about 6000 mg/kg.

With `CCCCCCCCCCCC(=O)NC(Cc1ccccc1)C(=O)O` (centres unmarked) [compound 8], the pest or weed control at 500 ppm with citrus melanose was determined as 59%; in series [1], 67%; in series [3] (Table 6, 500 ppm, four sprays, inside of leaves, read-out: Preventive value (inside)), 68%; in series [3] (Table 6, 500 ppm, four sprays, outside of leaves, read-out: Preventive value (outside)), 75%. Moreover, in the series with citrus melanose, the Extent infection came to 22%. For the same compound, the “Average number of disease lesions per leaf” value in series [2] was determined as 11.0. Moreover, the “Number of leaves infected (outside)” value in series [3] (Table 6, 500 ppm, four sprays) came out at 3. For the same compound, the “Number of leaves infected (inside)” value in series [3] (Table 6, 500 ppm, four sprays) is reported as 7.

Turning to `CCCCCCCCCCCCCCCCCC(=O)N[C@@H](Cc1ccccc1)C(=O)O` [compound 4], the pest or weed control at 500 ppm in the series with citrus melanose came to 60%; in series [1], 78%; in series [3] (read-out: Preventive value (inside)), 47%; in series [3] (read-out: Preventive value (outside)), 42%. The Extent infection with citrus melanose came out at 21%. In series [2], the “Average number of disease lesions per leaf” value stood at 7.3. For the same compound, the “Number of leaves infected (outside)” value in series [3] (Table 6, 500 ppm, four sprays) came to 7. Besides, the “Number of leaves infected (inside)” value in series [3] (Table 6, 500 ppm, four sprays) was 10.
